Experimental data from article PMC5554220, “A Novel Aldosterone Antagonist Limits Renal Injury in 5/6 Nephrectomy” (Scientific Reports, 2017).

Target: T1, human mineralocorticoid receptor (hMR) (Homo sapiens, UniProt P08235)
T1 construct: made in house; host or cells: Sf9 insect cells (baculovirus)
T1 sequence (P08235 1-984): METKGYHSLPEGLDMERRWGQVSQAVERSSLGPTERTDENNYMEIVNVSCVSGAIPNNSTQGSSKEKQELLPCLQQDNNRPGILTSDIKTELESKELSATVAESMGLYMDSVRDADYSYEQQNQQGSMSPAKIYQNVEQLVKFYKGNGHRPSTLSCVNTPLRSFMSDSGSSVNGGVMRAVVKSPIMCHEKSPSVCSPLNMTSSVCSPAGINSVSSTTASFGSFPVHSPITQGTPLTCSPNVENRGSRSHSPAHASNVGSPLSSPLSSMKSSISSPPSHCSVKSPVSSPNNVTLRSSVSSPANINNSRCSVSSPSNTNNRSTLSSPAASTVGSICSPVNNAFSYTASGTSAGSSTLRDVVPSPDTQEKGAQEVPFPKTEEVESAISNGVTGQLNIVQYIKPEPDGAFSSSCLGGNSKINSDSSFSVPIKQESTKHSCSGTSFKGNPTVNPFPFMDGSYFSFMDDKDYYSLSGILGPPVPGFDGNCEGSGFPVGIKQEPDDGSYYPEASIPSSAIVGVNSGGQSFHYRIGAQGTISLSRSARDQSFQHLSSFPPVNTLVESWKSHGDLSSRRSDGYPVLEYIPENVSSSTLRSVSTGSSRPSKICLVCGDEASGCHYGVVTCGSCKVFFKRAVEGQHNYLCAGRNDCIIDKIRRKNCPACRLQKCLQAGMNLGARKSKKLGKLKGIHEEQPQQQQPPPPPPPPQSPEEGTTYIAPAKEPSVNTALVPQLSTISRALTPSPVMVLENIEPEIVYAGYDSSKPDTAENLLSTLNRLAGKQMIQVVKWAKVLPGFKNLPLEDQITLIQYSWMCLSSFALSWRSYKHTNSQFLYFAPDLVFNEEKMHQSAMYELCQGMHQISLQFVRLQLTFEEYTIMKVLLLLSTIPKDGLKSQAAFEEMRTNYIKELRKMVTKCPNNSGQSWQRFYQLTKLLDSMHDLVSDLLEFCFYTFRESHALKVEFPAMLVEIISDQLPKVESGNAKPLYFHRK
Assay: Radioligand binding, [3H]aldosterone, hMR Sf9 lysate, vacuum filtration
Protocol: Full-length human mineralocorticoid receptor (hMR) to be used in radioligand binding was isolated from a human kidney cDNA library (Clontech, Palo Alto, CA). […] The hMR, hPR, and hAR cDNAs were subcloned in the eukaryotic expression vector pcDNA3. Methods for the expression of functionally active hMR, hAR and hPR utilizing the baculovirus expression system were described previously, [31].
Affinity of ligands to the soluble receptor was determined using vacuum filtration methods, preparing soluble receptors in 96-well Falcon polystyrene plates (BD Biosciences, Bedford, MA) in a total volume of 250 μl. […] Binding studies for ligands for hPR and hAR were determined using [1,2,6,7-3H(N)] […] Specific binding of 3H-progesterone for hPR and 3H-mibolerone for hAR was determined in the presence and absence of 1 μM mifepristone. Inhibition constants (Ki), were determined either from the Cheng-Prusoff equation[32], or directly using non-linear regression curve fitting to a three-parameter one-site competitive equation. […] Protein was measured using colorimetric detection and quantification of bicinchoninic acid (BCA Protein Assay, Pierce, Rockford, IL). […] Concentration response curves were analyzed statistically using a four-parameter logistic equation (Hill equation for sigmoid curves). […]

## O=c1[nH]c2ccc(/C=C3\c4ccc(F)cc4COc4cc(F)ccc43)cc2[nH]1 [Ly]
hMR expressed in Sf9, [3H]aldosterone 0.5 nM, read-out: Mean Ki ± SEM hMR
  Ki: 1.6 ± 0.3 nM
hMR, 124/1.6
  Eple/Ly Ki ratio: 77.5
